Data on 26 compounds can be found in patent US20260138959A1, “QUINAZOLINE DERIVATIVE COMPOUND AND USE THEREOF” (VORONOI INC., priority 2021, published 2026).

One test relates to Ba/F3-c-KIT(D816V). Description: Proliferation inhibitory activity on Ba/F3 cell (CellTiter-Glo, 72 hours), c-KIT(D816V). The following applies: Mus musculus, BaF3, read-out: Ba/F3 (nM) c-KIT (D816V) (GI50 class). In kind it is cell-based. As for the experimental part: (§1) Ba/F3-TEL-PDGFRα(WT), Ba/F3-TEL-PDGFβ(WT), Ba/F3-c-KIT(D816V) (Kyinno, #KC-0138), c-KIT V560G/D816V, c-KIT D814Y were seeded at 3×10^3/100 μl/well in a clear bottom white 96-well plate. A culture solution containing compounds of 12 concentrations (0.00001-2 mM) serially diluted in 3 folds and the DMSO control group was added at 0.5 μl/well each to a final concentration of 0.00005-10 μM, and then incubated in a CO2 incubator at 37° C. for 72 hours. After 72 hours, the plate treated with the compound was taken out, CellTiter-Glo® Assay (Promega) solution was treated with 100 μl/well, followed by mixing well. After mixing well for about 10 minutes at room temperature, […] was measured using a microplate reader. The data were presented as percentages in proportion to treated cells based on the vehicle, GI50 (nM) values were calculated using GraphPad Prism 8.3.0 (GraphPad software Inc., San Diego).
(§2) The inhibitory activities of Ba/F3 expressing PDGFR-α, PDGFR-β, c-KIT(D816V), c-KIT V560G/D816V, and c-KIT D814Y measured as described above were measured and shown in Table 7 below (A: GI50≤200 nM; B: 200 nM<GI50≤500 nM; C: GI50>500 nM).

In the next test the test system is c-KIT V560G/D816V. Description: Proliferation inhibitory activity on Ba/F3 cell (CellTiter-Glo, 72 hours), c-KIT V560G/D816V. It counts as cell-based. Conditions: Mus musculus, BaF3, c-KIT V560G/D816V cells, read-out: Cell (nM) c-KIT V560G/D816V (GI50 class). On the procedure: as §1, §2

SMILES strings stand for the structures.

Turning to `COc1cc2c(-c3ccc(NC(=O)Cc4ccc(C(F)(F)F)cc4)cc3)ncnc2cc1OCc1cccnc1` [Example 29, N-(4-(6-methoxy-7-(pyridin-3-ylmethoxy)quinazolin-4-yl)phenyl)-2-(4-(trifluoromethyl)phenyl)acetamide], the GI50 in the test with Ba/F3-c-KIT(D816V) and in the test on c-KIT V560G/D816V was at most 200 nM throughout.

On to `COc1cc2c(-c3ccc(NC(=O)Cc4cccc(C(F)(F)F)c4)cc3)ncnc2cc1OCCCN1CCN(C)CC1` [Example 55, N-(4-(6-methoxy-7-(3-(4-methylpiperazin-1-yl)propoxy)quinazolin-4-yl)phenyl)-2-(3-(trifluoromethyl)phenyl)acetamide], for which the GI50 in the test on Ba/F3-c-KIT(D816V) and in the test on c-KIT V560G/D816V was at most 200 nM each time.

For `CCN1CCC(COc2cc3ncnc(-c4ccc(NC(=O)Cc5ccc(Cl)c(C(F)(F)F)c5)cc4)c3cc2OC)CC1` [Example 78, 2-(4-chloro-3-(trifluoromethyl)phenyl)-N-(4-(7-((1-ethylpiperidin-4-yl)methoxy)-6-methoxyquinazolin-4-yl)phenyl)acetamide], the GI50 with Ba/F3-c-KIT(D816V) and with c-KIT V560G/D816V was at most 200 nM each time.

Turning to `COc1cc2c(-c3ccc(NC(=O)Cc4ccc(C(F)(F)F)cc4)cc3)ncnc2cc1OCCCN1CCN(C(C)=O)CC1` [Example 141, N-(4-(7-(3-(4-acetylpiperazin-1-yl)propoxy)-6-methoxyquinazolin-4-yl)phenyl)-2-(4-(trifluoromethyl)phenyl)acetamide], the GI50 in the test with Ba/F3-c-KIT(D816V) and in the test on c-KIT V560G/D816V was at most 200 nM in each case.

On to `COc1cc2c(-c3ccc(NC(=O)Cc4ccc(C(F)(F)F)cc4)cc3)ncnc2cc1OC[C@@H]1CCN(C(=O)OC(C)(C)C)C1` [Example 35, tert-butyl (R)-3-(((6-methoxy-4-(4-(2-(4-(trifluoromethyl)phenyl)acetamido)phenyl)quinazolin-7-yl)oxy)methyl)pyrrolidin-1-carboxylate], for which the GI50 in the test with Ba/F3-c-KIT(D816V) is at most 200 nM; with c-KIT V560G/D816V it was above 500 nM.

For the compound `COc1cc2c(-c3ccc(NC(=O)Cc4cccc(C(F)(F)F)c4)cc3)ncnc2cc1OCC1CCNCC1` [Example 60, N-(4-(6-methoxy-7-(piperidin-4-ylmethoxy)quinazolin-4-yl)phenyl)-2-(3-(trifluoromethyl)phenyl)acetamide], the results for the GI50 in the test on Ba/F3-c-KIT(D816V) and in the test on c-KIT V560G/D816V were at most 200 nM and 200 to 500 nM, respectively.

As for `CCN1CCC(COc2cc3ncnc(-c4ccc(NC(=O)Cn5cc(C(C)(C)C)nn5)cc4)c3cc2OC)CC1` [Example 66, 2-(4-(tert-butyl)-1H-1,2,3-triazole-1-yl)-N-(4-(7-((1-ethylpiperidin-4-yl)methoxy)-6-methoxyquinazolin-4-yl)phenyl)acetamide], in the test with Ba/F3-c-KIT(D816V), the GI50 was at most 200 nM.

In the case of `COc1cc2c(-c3ccc(NC(=O)Cc4ccc(C(F)(F)F)c(F)c4)cc3)ncnc2cc1OCC1CCNCC1` [Example 79, 2-(3-fluoro-4-(trifluoromethyl)phenyl)-N-(4-(6-methoxy-7-(piperidin-4-ylmethoxy)quinazolin-4-yl)phenyl)acetamide], in the test with Ba/F3-c-KIT(D816V), the GI50 is at most 200 nM.

Consider `COc1cc2c(-c3ccc(NC(=O)Cc4ccc(C(F)(F)F)cc4)cc3)ncnc2cc1OCCCN1CC2(C1)CN(C(=O)OC(C)(C)C)C2` [Example 19], for which the GI50 with Ba/F3-c-KIT(D816V) was at most 200 nM.

As to `COc1cc2c(-c3ccc(NC(=O)Cn4cc(C(C)(C)C)nn4)cc3)ncnc2cc1OCCCN1CCN(C)CC1` [Example 68, 2-(4-(tert-butyl)-1H-1,2,3-triazole-1-yl)-N-(4-(6-methoxy-7-(3-(4-methylpiperazin-1-yl)propoxy)quinazolin-4-yl)phenyl)acetamide], in the test with Ba/F3-c-KIT(D816V), the GI50 is at most 200 nM.

Regarding `C=CCC(=O)Nc1ccc(-c2ncnc3cc(OCCCN4CCN(C)CC4)c(OC)cc23)cc1` [Example 87, N-(4-(6-methoxy-7-(3-(4-methylpiperazin-1-yl)propoxy)quinazolin-4-yl)phenyl)but-3-enamide], the GI50 in the test on Ba/F3-c-KIT(D816V) was at most 200 nM.

For the compound `COc1cc2ncnc(-c3ccc(NC(=O)Cc4ccc(C(F)(F)F)cc4)cc3)c2cc1OC1CCN(C(=O)OC(C)(C)C)C1` (centres unmarked) [Example 136, tert-butyl 3-((7-methoxy-4-(4-(2-(4-(trifluoromethyl)phenyl)acetamido)phenyl)quinazolin-6-yl)oxy)pyrrolidin-1-carboxylate], in the test with Ba/F3-c-KIT(D816V), the GI50 was at most 200 nM.

For the compound `COc1cc2ncnc(-c3ccc(NC(=O)Cc4ccc(C(F)(F)F)cc4)cc3)c2cc1OC1CN(C(=O)OC(C)(C)C)C1` [Example 135, tert-butyl 3-((7-methoxy-4-(4-(2-(4-(trifluoromethyl)phenyl)acetamido)phenyl)quinazolin-6-yl)oxy)azetidin-1-carboxylate], in the test with Ba/F3-c-KIT(D816V), the GI50 is 200 to 500 nM.

For the compound `COc1cc2ncnc(-c3ccc(NC(=O)Cc4ccc(C(F)(F)F)cc4)cc3)c2cc1OCCCNc1cnn(C)c1` [Example 155, N-(4-(7-methoxy-6-(3-((1-methyl-1H-pyrazol-4-yl)amino)propoxy)quinazolin-4-yl)phenyl)-2-(4-(trifluoromethyl)phenyl)acetamide], the GI50 in the test on Ba/F3-c-KIT(D816V) was at most 200 nM.

`COc1cc2c(-c3ccc(NC(=O)Cc4ccc(C(F)(F)F)cc4)cc3)ncnc2cc1OC[C@@H]1CCNC1` [Example 38, (R)-N-(4-(6-methoxy-7-(pyrrolidin-3-ylmethoxy)quinazolin-4-yl)phenyl)-2-(4-(trifluoromethyl)phenyl)acetamide]: in the test with Ba/F3-c-KIT(D816V), the GI50 was at most 200 nM.

As to `COc1cc2c(-c3ccc(NC(=O)Cc4ccc(C(F)(F)F)cc4)cc3)ncnc2cc1OCCCN1CC2(CNC2)C1` [Example 20, N-(4-(7-(3-(2,6-diazaspiro[3.3]heptane-2-yl)propoxy)-6-methoxyquinazolin-4-yl)phenyl)-2-(4-(trifluoromethyl)phenyl)acetamide], the GI50 with Ba/F3-c-KIT(D816V) is above 500 nM.

For `COc1cc2c(-c3ccc(NC(=O)Cc4ccc(C(F)(F)F)cc4)cc3)ncnc2cc1OCCCNc1cnn(C)c1` [Example 26, N-(4-(6-methoxy-7-(3-((1-methyl-1H-pyrazol-4-yl)amino)propoxy)quinazolin-4-yl)phenyl)-2-(4-(trifluoromethyl)phenyl)acetamide], the GI50 with Ba/F3-c-KIT(D816V) is at most 200 nM.

On to `COc1cc2ncnc(-c3ccc(NC(=O)Cc4ccc(C(F)(F)F)cc4)cc3)c2cc1OC1COC1` [Example 153, N-(4-(7-methoxy-6-(oxetan-3-yloxy)quinazolin-4-yl)phenyl)-2-(4-(trifluoromethyl)phenyl)acetamide], for which, in the test with Ba/F3-c-KIT(D816V), the GI50 was at most 200 nM.

For the compound `CCN1CCC(COc2cc3ncnc(-c4ccc(NC(=O)Cn5cc(C(C)C)nn5)cc4)c3cc2OC)CC1` [Example 65, N-(4-(7-((1-ethylpiperidin-4-yl)methoxy)-6-methoxyquinazolin-4-yl)phenyl)-2-(4-isopropyl-1H-1,2,3-triazole-1-yl)acetamide], the GI50 with Ba/F3-c-KIT(D816V) is at most 200 nM.

As for `COc1cc2ncnc(-c3ccc(NC(=O)Cc4ccc(C(F)(F)F)cc4)cc3)c2cc1OCCCN1CCN(C(C)=O)CC1` [Example 128, N-(4-(6-(3-(4-acetylpiperazin-1-yl)propoxy)-7-methoxyquinazolin-4-yl)phenyl)-2-(4-(trifluoromethyl)phenyl)acetamide], the GI50 in the test on Ba/F3-c-KIT(D816V) is at most 200 nM.

Consider `COc1cc2ncnc(-c3ccc(NC(=O)Cc4ccc(C(F)(F)F)cc4)cc3)c2cc1OCCCN1CC(N(C)C)C1` [Example 152, N-(4-(6-(3-(3-(dimethylamino)azetidin-1-yl)propoxy)-7-methoxyquinazolin-4-yl)phenyl)-2-(4-(trifluoromethyl)phenyl)acetamide], for which the GI50 in the test on Ba/F3-c-KIT(D816V) is at most 200 nM.

As for `COc1cc2c(-c3ccc(NC(=O)Cc4ccc(C(F)(F)F)cc4)cc3)ncnc2cc1OCC1CCCN(C(=O)OC(C)(C)C)C1` (centres unmarked) [Example 14, tert-butyl 3-(((6-methoxy-4-(4-(2-(4-(trifluoromethyl)phenyl)acetamido)phenyl)quinazolin-7-yl)oxy)methyl)piperidin-1-carboxylate], the GI50 in the test with Ba/F3-c-KIT(D816V) is above 500 nM.

Turning to `COc1cc2ncnc(-c3ccc(NC(=O)Cc4ccc(C(F)(F)F)cc4)cc3)c2cc1OCC1CCNCC1` [Example 146, N-(4-(7-methoxy-6-(piperidin-4-ylmethoxy)quinazolin-4-yl)phenyl)-2-(4-(trifluoromethyl)phenyl)acetamide], the GI50 in the test on Ba/F3-c-KIT(D816V) is above 500 nM.

For the compound `COc1cc2c(-c3ccc(NC(=O)Cn4cc(C(C)(C)C)nn4)cc3)ncnc2cc1OCC1CCNCC1` [Example 62, 2-(4-(tert-butyl)-1H-1,2,3-triazole-1-yl)-N-(4-(6-methoxy-7-(piperidin-4-ylmethoxy)quinazolin-4-yl)phenyl)acetamide], in the test on Ba/F3-c-KIT(D816V), the GI50 was above 500 nM.

On to `COc1cc2ncnc(-c3ccc(NC(=O)Cc4ccc(C(F)(F)F)cc4)cc3)c2cc1OCCCN1CC2(CNC2)C1` [Example 148, N-(4-(6-(3-(2,6-diazaspiro[3.3]heptane-2-yl)propoxy)-7-methoxyquinazolin-4-yl)phenyl)-2-(4-(trifluoromethyl)phenyl)acetamide], for which the GI50 in the test with Ba/F3-c-KIT(D816V) is above 500 nM.

As to `COc1cc2c(-c3ccc(NC(=O)CC4CCNCC4)cc3)ncnc2cc1OCCCN1CCN(C)CC1` [Example 86, N-(4-(6-methoxy-7-(3-(4-methylpiperazin-1-yl)propoxy)quinazolin-4-yl)phenyl)-2-(piperidin-4-yl)acetamide], the GI50 in the test with Ba/F3-c-KIT(D816V) is above 500 nM.
